Tests used:
female CD-1 mice = assay: Mouse hot plate test for antinociception; type: in vivo
[1] = tested on: C57Bl mice, bleomycin induced skin fibrosis; assay: Bleomycin induced skin fibrosis mouse model of scleroderma; type: in vivo; conditions: for inhibition of skin fibrosis: oral gavage 2.5, 5.0 and 10 mg/kg daily, bleomycin s.c. 14 days, sacrifice day 21
Protocol: Groups of 8 mice (6-12 week-old C57Bl) received daily s.c. injections of bleomycin (20 ug/mouse) or vehicle for 14 days, followed by one weeks of recovery. In parallel, starting day 1, ultrapure AJA suspended in 2% methylcellulose (MC) or vehicle was administered by oral gavage at 0, 2.5, 5.0 and 10 mg/kg. On day 21, mice were sacrificed. Their skin was harvested and processed for routine histology (H&E, trichrome and picrosirius red stains), immunohistology (paraffin-embedded or frozen samples), in situ hybridization, collagen (SIRCOL) assays, and RNA isolation for real-time qPCR or microarray hybridization. Skin sections were carefully characterized and quantified for dermal inflammation, dermal thickening, collagen accumulation (Trichrome), and collagen cross-linking (Sirius red) in lesional skin.

HL-60 cells = assay: PGJ synthesis in HL-60 cells (ELISA); type: cell-based; conditions: TNFα 10 nM, with CB2 or CB1 antagonist, N=4
Protocol: The CB2 antagonist SR144528 reduced ultrapure AJA-induced PGJ synthesis in HL60 immune system cells at low concentrations (squares). […] DMSO control (open circles). Treatments of cells was carried out in 48 well plates with 20,000 cells/500 μl RPMI/FCS media/well. Cells were incubated for 20 hrs at 37° C. and 5% CO2. Media was changed to 500 μl of serum free RPMI and TNFα (10 nM) added. […] N=4.

hCB2 receptor [2] = biological target: T1, hCB2 receptor (Homo sapiens, UniProt P34972)
T1 sequence (P34972 whole entry): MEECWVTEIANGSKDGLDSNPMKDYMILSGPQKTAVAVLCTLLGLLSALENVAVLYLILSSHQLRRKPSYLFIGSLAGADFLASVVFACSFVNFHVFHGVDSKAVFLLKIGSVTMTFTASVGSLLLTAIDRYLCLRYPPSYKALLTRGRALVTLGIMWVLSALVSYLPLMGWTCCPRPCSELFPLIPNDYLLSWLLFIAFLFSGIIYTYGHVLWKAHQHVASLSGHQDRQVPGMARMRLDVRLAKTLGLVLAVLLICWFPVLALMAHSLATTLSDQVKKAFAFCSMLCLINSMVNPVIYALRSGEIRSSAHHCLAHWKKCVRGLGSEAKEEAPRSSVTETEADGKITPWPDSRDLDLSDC
Excerpt: (§1) When the CB1 or CB2 receptor is activated by an agonist, the affinity of the G protein alpha subunit increases with respect to GTP vs. GDP. As a consequence, GDP is displaced from the G protein and GTP or GTPγS binds. If a radioactive label, such as [^35S], is attached to the GTPγS molecule, then the formation of the G protein/[^35S]GTPγS complex can be directly measured using liquid scintillation spectrophotometry.
(§2) The CB1 and CB2 receptor assays involve membrane preparations purchased from Perkin Elmer (Waltham, Mass.) isolated from a HEK-293 expression system. G-protein coupled signal transduction (GTP-γ-[35S]) assays of test compounds were conducted in an incubation mixture consisting of a test compound (250 nM-1 mM), GDP (20 μM), GTP-γ-[35S] (100 pM), and the hCB1 and hCB2 membrane preparations (0.4 pM) in a total volume of 0.4 mL of assay buffer (50 mM TRIS-HCl, pH 7.4, 1 mM EDTA, 100 mM NaCl, 5 mM MgCl2, 0.5% (w/v) BSA). Nonspecific binding was determined in the presence of 100 μM unlabeled GTP-γ-S, and basal binding was determined in the absence of drug. Duplicate samples were incubated for 1 h at 30° C., and the bound complex was filtered from the reaction mixture as described previously and counted in a liquid scintillation counter. Specific binding was calculated by subtracting nonspecific binding from total binding and dividing by the total basal binding minus nonspecific binding. Data were plotted and analyzed with GraphPad Prism (GraphPad Software, Inc., San Diego, Calif.).

CB1 receptor = CB1 receptor (Homo sapiens, UniProt P21554); assay: biochemical
Sequence of CB1 receptor (P21554 whole entry): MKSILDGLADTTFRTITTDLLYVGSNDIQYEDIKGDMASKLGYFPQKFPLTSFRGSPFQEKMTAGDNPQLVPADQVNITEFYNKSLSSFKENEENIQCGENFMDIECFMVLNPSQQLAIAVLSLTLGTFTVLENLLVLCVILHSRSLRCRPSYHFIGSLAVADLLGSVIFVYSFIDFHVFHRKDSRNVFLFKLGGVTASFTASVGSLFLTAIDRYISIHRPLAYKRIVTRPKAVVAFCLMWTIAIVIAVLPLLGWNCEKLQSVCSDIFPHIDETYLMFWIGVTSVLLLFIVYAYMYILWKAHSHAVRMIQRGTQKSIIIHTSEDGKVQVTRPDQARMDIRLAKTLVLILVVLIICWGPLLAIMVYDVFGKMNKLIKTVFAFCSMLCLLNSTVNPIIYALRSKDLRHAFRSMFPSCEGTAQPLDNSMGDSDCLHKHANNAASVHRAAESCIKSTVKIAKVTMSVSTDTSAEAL
Excerpt: as §1, §2

hCB2 receptor [3] = biological target: T1, hCB2 receptor; assay: biochemical
Excerpt: as §1, §2

hCB2 receptor [4] = biological target: T1, hCB2 receptor; assay: CB receptor radioligand binding assay, human CB2; set-up: expressed in transfected cells; host or cells: HEK-293T
Protocol: Membrane preparation—HEK-293T cells were cultured according to ATCC (Manassas, Va.) guidelines and transfected with human CB1 cDNA (Genbank X54937) or CB2 cDNA (Genbank X74328), operably linked to the SV40 promoter, using Polyfect (Qiagen, Valencia, Calif.) or Fugene (Roche, Nutley, N.J.) according to manufacturer's instructions. 48 h after transfection, cells were harvested in ice cold membrane buffer (20 mM HEPES, 6 mM MgCl2, 1 mM EDTA, pH 7.2) using a cell scraper. Cells were transferred to a nitrogen cavitation chamber and a pressure of […] was applied for 30 min. The pressure was released and the cell debris was collected and centrifuged at 1000 g at 4° C. for 10 min. The supernatant was collected and the spin was repeated until the supernatant was free of precipitate. […] The membrane concentration was determined using a BioRad (Hercules, Calif.) protein assay dye reagent according to manufacturer's instructions. […]
Membranes were incubated for 2 hr at room temperature, then filtered onto a presoaked (with 0.1% polyethylenimine for 1 to 2 hr) 96 well GF/B filterplate (Packard Bioscience, Shelton, Conn.) and washed with […] ice cold wash buffer (25 mM HEPES, 1 mM CaCl2, 5 mM MgCl2, 0.25M NaCl) using a Filtermate 196 Harvester (Packard Instruments, Downers Grove, Ill.). […] Plates were counted on a Topcount NXT (Packard, Shelton, Conn.). […]

CCCCCCC(C)(C)c1cc(O)c2c(c1)OC(C)(C)[C@@H]1CC=C(C(=O)O)C[C@@H]21 [JBT-101, (6aR,10aR)-3-(1′,1′-dimethylheptyl)-Δ8-tetrahydro-cannabinol-9-carboxylic acid]
doses required to see analgesia compared with AJA from U.S. Pat. No. 5,338,753 (female CD-1 mice; dose response 0.05 to 56 mg/kg oral): required much higher doses | antinociception in the hot plate test (% MPE) (female CD-1 mice; oral 0.05-56 mg/kg, 90 min after administration, vs vehicle): None of the doses tested produced significant antinociception | doses at which active in the mouse hot plate assay (female CD-1 mice; oral, FIG. 15): ≥ 30 mg/kg | inhibition of skin thickening ([1]; all oral doses, including 1 mg/kg (data not shown)): equally effective | inhibition of skin fibrosis [1]: effective at inhibiting skin fibrosis | inhibition of skin fibrosis ([1]; listed as ultrapure AJA): effective at all doses tested | stimulation of PGJ in HL-60 cells (HL-60 cells): CB2 specificity | potency in the GTP-gamma-S assay better in the CB2 assay than in the CB1 assay (hCB2 receptor [2]; FIG. 13): ~10 × | difference in potency for activation of CB2 versus CB1 receptors (hCB2 receptor [2]; GTP-γ-35S EC50 CB1 vs CB2): 9 fold | EC50 (CB1 receptor; hCB1 EC50 Mean (±SEM), GTP-γ-35S turnover, mean of 4 repetitions): 9210 ± 2040 nM | EC50 (CB1 receptor; hCB1 EC50 Rep 1, GTP-γ-35S turnover, replicate 1): 13700 nM | EC50 (CB1 receptor; hCB1 EC50 Rep 2, GTP-γ-35S turnover, replicate 2): 5830 nM | EC50 (CB1 receptor; hCB1 EC50 Rep 3, GTP-γ-35S turnover, replicate 3): 11600 nM | EC50 (CB1 receptor; hCB1 EC50 Rep 4, GTP-γ-35S turnover, replicate 4): 5660 nM | EC50 (hCB2 receptor [3]; hCB2 EC50 Mean (±SEM), GTP-γ-35S turnover, mean of 4 repetitions): 1020 ± 92 nM | EC50 (hCB2 receptor [3]; hCB2 EC50 Rep 1, GTP-γ-35S turnover, replicate 1): 930 nM | EC50 (hCB2 receptor [3]; hCB2 EC50 Rep 2, GTP-γ-35S turnover, replicate 2): 815 nM | EC50 (hCB2 receptor [3]; hCB2 EC50 Rep 3, GTP-γ-35S turnover, replicate 3): 1230 nM | EC50 (hCB2 receptor [3]; hCB2 EC50 Rep 4, GTP-γ-35S turnover, replicate 4): 1100 nM | Ki (hCB2 receptor [4]): 51 ± 11 nM
